# Measurements published in PMC5500904 (Clinical cancer research : an official journal of the …, 2016).
# Read-outs that look alike come from different tables or passages of the source.
# Assays:
# IGF1R = IGF1R (Homo sapiens, UniProt P08069); assay: Phosphorylation of IGF1R in PBMCs; format: in vivo
# [1] = system: patients with advanced solid tumors; conditions: in vivo
# [2] = in vivo
# [3] = cited from earlier work
# adrenocortical carcinoma = conditions: cited from earlier work
# metastatic CRC = conditions: combined with everolimus; cited from earlier work
# clinical = conditions: human, in vivo; for Cmax: 150 mg; for AUC(0-t): AUC0–last
# [4] = system: patients with solid tumors; conditions: cited from earlier work; for antitumor activity as monotherapy: single agent, solid tumors
# advanced NSCLC = conditions: cited from earlier work
# Chain of IGF1R (P08069 31-1367): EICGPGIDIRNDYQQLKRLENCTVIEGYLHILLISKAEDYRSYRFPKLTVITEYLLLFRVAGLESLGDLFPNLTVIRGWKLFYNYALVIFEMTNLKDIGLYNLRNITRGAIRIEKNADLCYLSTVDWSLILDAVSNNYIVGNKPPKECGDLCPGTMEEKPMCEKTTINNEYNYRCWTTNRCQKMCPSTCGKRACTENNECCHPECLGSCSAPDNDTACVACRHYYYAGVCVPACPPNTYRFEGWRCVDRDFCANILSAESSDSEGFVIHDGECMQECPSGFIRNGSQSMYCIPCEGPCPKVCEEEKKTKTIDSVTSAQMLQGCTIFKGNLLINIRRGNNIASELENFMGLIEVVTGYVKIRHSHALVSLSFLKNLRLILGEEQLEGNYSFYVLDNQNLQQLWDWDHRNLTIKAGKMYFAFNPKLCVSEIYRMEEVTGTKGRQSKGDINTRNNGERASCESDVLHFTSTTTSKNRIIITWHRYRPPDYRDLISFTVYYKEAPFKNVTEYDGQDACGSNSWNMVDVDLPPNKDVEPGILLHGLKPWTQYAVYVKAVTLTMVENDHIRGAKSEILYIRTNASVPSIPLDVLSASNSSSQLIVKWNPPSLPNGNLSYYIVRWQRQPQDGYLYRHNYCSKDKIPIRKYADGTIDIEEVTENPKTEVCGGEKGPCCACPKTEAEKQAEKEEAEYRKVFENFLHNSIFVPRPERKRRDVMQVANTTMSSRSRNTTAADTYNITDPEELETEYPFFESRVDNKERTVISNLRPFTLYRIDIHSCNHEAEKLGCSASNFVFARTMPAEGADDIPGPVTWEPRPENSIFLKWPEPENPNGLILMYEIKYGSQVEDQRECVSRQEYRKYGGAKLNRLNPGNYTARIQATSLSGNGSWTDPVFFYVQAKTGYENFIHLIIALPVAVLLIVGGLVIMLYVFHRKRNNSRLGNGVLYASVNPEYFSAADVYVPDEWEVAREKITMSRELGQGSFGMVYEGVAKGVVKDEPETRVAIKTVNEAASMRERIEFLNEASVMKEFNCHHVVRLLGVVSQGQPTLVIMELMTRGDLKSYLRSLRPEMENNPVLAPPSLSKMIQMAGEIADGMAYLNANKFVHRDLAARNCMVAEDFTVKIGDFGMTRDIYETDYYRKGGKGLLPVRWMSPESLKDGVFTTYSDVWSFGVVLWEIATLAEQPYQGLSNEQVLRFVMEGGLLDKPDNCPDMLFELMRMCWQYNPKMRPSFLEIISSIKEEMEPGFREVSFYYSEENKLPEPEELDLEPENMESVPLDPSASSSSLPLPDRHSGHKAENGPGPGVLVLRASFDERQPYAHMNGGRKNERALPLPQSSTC
compound,measurement,setting,value
"C[C@]1(O)C[C@@H](c2nc(-c3ccc4ccc(-c5ccccc5)nc4c3)c3c(N)nccn32)C1 [linsitinib, Linsitinib]",IGF1R phosphorylation in PBMCs,"IGF1R; 2 to 24 hours after the first dose, 7 cases, S1–S3",substantially inhibited
same,IGF1R phosphorylation in PBMCs,"IGF1R; later time points, intermittent S1 schedule",fluctuating receptor inhibition
same,IGF1R phosphorylation in PBMCs,"IGF1R; later time points, ≥300 mg linsitinib daily in S2 and S3",persisting receptor inhibition
same,Linsitinib-related hyperglycemia at grade 2,[1]; human,2
same,Linsitinib-related hyperglycemia at grade 3,[1]; human,3 cases
same,Treatment-related SAEs,[1]; human,10 of 40 (25%) patients (%)
same,linsitinib-related AE: fatigue,[1]; human,12%
same,linsitinib-related AE: nausea,[1]; human,11%
same,linsitinib-related AE: prolonged QTc interval,[1]; human,8%
same,linsitinib-related AE: vomiting,[1]; human,8%
same,patients discontinuing for an event related only to the named treatment,[1]; human,1 patients
same,thrombocytopenia and neutropenia,[1],not observed
same,Cmax and AUC from time zero to infinity versus dose,[2],increased in a dose-proportional manner
same,drug–drug interaction (pharmacokinetic),[2],no significant drug–drug interaction effect
same,plasma level associated with preclinical activity,[3],~ 1 μmol/L
same,overall survival versus placebo arm,adrenocortical carcinoma,no difference in overall survival
same,patients with durable PR,adrenocortical carcinoma; linsitinib arm,3 of 90
same,clinical activity,metastatic CRC,no evidence of clinical activity
same,concentration at 24 h,clinical,≤ 400 ng/mL
same,Cmax,clinical,2580 ng/mL
same,AUC(0-t),clinical,17900 ng·h/mL
same,Tmax,clinical,3 h
same,QTc prolongation versus peak concentrations of linsitinib,"[4]; another study, 600 mg dose, ref unpublished data",associated with peak concentrations
same,half-life,[4],5 h
same,monotherapy MTD,[4]; continuous once daily dosing,400 mg
same,monotherapy MTD,[4]; intermittent dosing,600 mg
same,antitumor activity as monotherapy,[4],partial responses (PR) in melanoma and adrenocortical carcinoma
same,antitumor activity as monotherapy,[4]; listed as Linsitinib,induced partial responses in adrenocortical carcinoma and melanoma
same,monotherapy RP2D,"[4]; twice daily, continuous",150 mg
"C#Cc1cccc(Nc2ncnc3cc(OCCOC)c(OCCOC)cc23)c1 [erlotinib, Erlotinib, reference compound]",Erlotinib-related AE: diarrhea,[1]; human,26%
same,Erlotinib-related AE: drug eruption,[1]; human,74%
same,Erlotinib-related AE: dry skin,[1]; human,26%
same,Erlotinib-related AE: pruritus,[1]; human,26%
same,Erlotinib-related AEs,[1]; human,84 % of patients
same,patients discontinuing for an event related only to the named treatment,[1]; human,3 patients
same,Tmax,[2]; human,4.1 (1.9–8.4) h
same,Cmax,clinical,1280 ng/mL
same,AUC(0-t),clinical,21100 ng·h/mL
same,Tmax,clinical,4.1 h
"R1507: IGF1R antibody, evaluated with erlotinib in NSCLC",12-week progression-free survival rate,"advanced NSCLC; R1507 with erlotinib, patients with KRAS-mutant tumors",36%
same,progression-free or overall survival versus erlotinib alone,"advanced NSCLC; R1507 with erlotinib, unselected patients",no progression-free survival or overall survival advantage
same,tolerability,advanced NSCLC; in vivo,tolerable
